A short description of the data set: Solubility of dolutegravir and its salts in aqueous media. The class given is physicochemical. As to the method: At an increasing pH, for example to pH 6.8 in 50 mM KH2PO4 the solubility of the sodium salt of dolutegravir slightly increases but the salt still remains very slightly soluble (1-0.1 mg/ml), only. Due to this very low solubility of the active ingredient the tablets known from WO2006/116764 are of little practical use because the active ingredient will hardly dissolve in the intestine resulting in a low bioavailability.
Dolutegravir may be present in the solid pharmaceutical dosage form in its non-salt form or any pharmaceutically acceptable salt or solvate thereof. Suitable pharmaceutically acceptable salts are known to the skilled person. For example, dolutegravir may be present as alkali metal salt, such as dolutegravir sodium or dolutegravir potassium. The potassium salt being preferred.

Counter-ions that a name gives are not always drawn. Like-named read-outs stand apart in the source and are kept apart here. Where only a bound is given, the exact number is not on record here.

Broadly, the solubility is the dissolved amount per volume that the medium holds.

Consider `C[C@@H]1CCO[C@H]2Cn3cc(C(=O)NCc4ccc(F)cc4F)c(=O)c(O)c3C(=O)N12` [Dolutegravir, (4R,12aS)-N-(2,4-difluorobenzyl)-7-hydroxy-4-methyl-6,8-dioxo-3,4,6,8,12,12a-hexahydro-2H-pyrido[1′,2′:4,5]pyrazino[2,1-b][1,3]oxazine-9-carboxamide], for which the solubility result (medium not stated) is on record as “practically insoluble”.
Consider `C[C@@H]1CCO[C@H]2Cn3cc(C(=O)NCc4ccc(F)cc4F)c(=O)c(O)c3C(=O)N12` [potassium salt], for which the “solubility relative to the sodium salt” value is “more soluble than the sodium salt”.
Consider `C[C@@H]1CCO[C@H]2Cn3cc(C(=O)NCc4ccc(F)cc4F)c(=O)c(O)c3C(=O)N12` [sodium salt of dolutegravir], for which the solubility was 100 to 1000 µg/mL (aqueous buffer, pH 6.8 in 50 mM KH2PO4, read-out: solubility) and < 100 µg/mL (simulated gastric fluid, 0.1 N HCl (pH 1.2), read-out: solubility).

These data come from patent publication US9480655B2, “Solid pharmaceutical dosage form of dolutegravir” (ratiopharm GmbH, priority 2013, dated 2016).
